# Legend:
# [1] = test system: Human cervical cancer cell Hela; experiment: Cell proliferative activity (MTT / cck-8); format: cell-based; conditions: Cervical cancer, Table 5, read-out: Half-Inhibitory Concentration IC50 Hela
# Description: (§1) Tumor cell line A375: human melanoma cell; H460: lung adenocarcinoma cell; Hela: human cervical cancer cell; HepG2: human liver cancer cell; and SKOV-3: human ovarian cancer cell, were all purchased from ATCC and cultured to logarithmic phase according to the cultivation protocol recommended by ATCC. The cells in the logarithmic phase were plated onto a 96-well plate at 2000-3000 cells/well; in the case of adherent cells, the cells should be adherent to the wall. […] After that, the cell proliferative activity was determined by MTT assay for the tumor cells representing the solid tumor model and by cck-8 assay for the tumor cells representing the hematologic tumor model.
# [2] = test system: Human lung cancer cell H460; experiment: Cell proliferative activity (MTT / cck-8); format: cell-based; conditions: NCI-H460, Lung cancer, Table 5, read-out: Half-Inhibitory Concentration IC50 H460
# Description: as §1
# [3] = test system: Multiple myeloma RPMI8226; experiment: Cell proliferative activity (MTT / cck-8); format: cell-based; conditions: Homo sapiens, RPMI-8226, read-out: Half-Inhibitory Concentration IC50 RPMI8226
# Description: as §1
# [4] = test system: Human liver cancer cell HepG2; experiment: Cell proliferative activity (MTT / cck-8); format: cell-based; conditions: Liver cancer, Table 5, read-out: Half-Inhibitory Concentration IC50 HepG2
# Description: as §1
# Leukemia K562 = experiment: Cell proliferative activity (MTT / cck-8); format: cell-based; conditions: Homo sapiens, read-out: Half-Inhibitory Concentration IC50 K562
# Description: as §1
# [5] = test system: Human ovarian cancer cell SKOV-3; experiment: Cell proliferative activity (MTT / cck-8); format: cell-based; conditions: SK-OV-3, Ovarian cancer, Table 5, read-out: Half-Inhibitory Concentration IC50 SKOV-3
# Description: as §1
# Multiple myeloma U266 = experiment: Cell proliferative activity (MTT / cck-8); format: cell-based; conditions: Homo sapiens, U-266, read-out: Half-Inhibitory Concentration IC50 U266
# Description: as §1
# B-cell lymphoma Ramos = experiment: Cell proliferative activity (MTT / cck-8); format: cell-based; conditions: Homo sapiens, read-out: Half-Inhibitory Concentration IC50 Ramos
# Description: as §1
# Leukemia MV4-11 = experiment: Cell proliferative activity (MTT / cck-8); format: cell-based; conditions: Homo sapiens, read-out: Half-Inhibitory Concentration IC50 MV4-11
# Description: as §1
# Lung cancer A549 = experiment: Cell proliferative activity (MTT / cck-8); format: cell-based; conditions: Homo sapiens, read-out: Half-Inhibitory Concentration IC50 A549
# Colon cancer HT29 = experiment: Cell proliferative activity (MTT / cck-8); format: cell-based; conditions: Homo sapiens, HT-29, read-out: Half-Inhibitory Concentration IC50 HT29
# Colon cancer HCT116 = experiment: Cell proliferative activity (MTT / cck-8); format: cell-based; conditions: Homo sapiens, HCT-116, read-out: Half-Inhibitory Concentration IC50 HCT116
# HDAC10 = HDAC10 (Homo sapiens, UniProt Q969S8); conditions: read-out: IC50 HDAC10; Table 4, Class IIb
# Chain of HDAC10 (Q969S8 whole entry): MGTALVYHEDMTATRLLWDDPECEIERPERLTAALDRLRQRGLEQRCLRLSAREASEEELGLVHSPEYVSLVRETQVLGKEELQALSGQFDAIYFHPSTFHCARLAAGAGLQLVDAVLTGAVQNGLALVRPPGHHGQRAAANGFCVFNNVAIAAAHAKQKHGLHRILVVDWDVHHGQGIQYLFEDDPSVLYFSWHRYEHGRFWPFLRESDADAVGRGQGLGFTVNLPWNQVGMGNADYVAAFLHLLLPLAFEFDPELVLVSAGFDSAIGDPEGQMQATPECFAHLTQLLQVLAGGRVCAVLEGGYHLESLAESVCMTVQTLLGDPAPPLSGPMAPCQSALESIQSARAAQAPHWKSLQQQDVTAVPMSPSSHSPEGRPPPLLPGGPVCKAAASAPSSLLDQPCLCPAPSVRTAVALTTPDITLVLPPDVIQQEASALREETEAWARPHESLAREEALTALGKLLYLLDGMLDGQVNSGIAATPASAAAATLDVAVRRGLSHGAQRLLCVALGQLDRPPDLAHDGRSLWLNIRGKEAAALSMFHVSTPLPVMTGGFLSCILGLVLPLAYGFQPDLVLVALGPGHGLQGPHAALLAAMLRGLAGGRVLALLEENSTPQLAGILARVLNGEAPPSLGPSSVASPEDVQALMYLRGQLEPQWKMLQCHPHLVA
# Description: The HDAC inhibitory activity was determined by fluorescence-coupled acetylated peptide substrate assay (Lys-Ac-AMC). HDAC1 protein was purchased from BPS Bioscience, and the reaction buffer system was a modified tris(hydroxymethyl)aminomethane buffer (pH 7.0). The small molecule compounds of the present invention were prepared by being dissolved in 100% DMSO. HDAC was prepared in a buffer at a certain concentration as an enzyme solution; trypsin and fluorescent group 4-amino-7-coumarin coupled-acetylated peptide (Ac-peptide) substrate were prepared in a buffer at a certain concentration as a substrate solution. The compounds were added into the reaction wells in a 384-well plate at a designed concentration of 10 μM, 1 μM, 0.5 μM, 0.1 μM, 0.05 μM, 0.01 μM, 0.005 μM, 0.001 μM, and 0.00005 μM, respectively, and then 15 μl of the HDAC solution was added into the reaction wells (15 μl of blank buffer to the control well). […] The results were analyzed by GraphPad Prism software and IC50 values were calculated according to the formula: Y=Background Data+(Top Data−Background Data)/(1+10^((Log IC50−X) a curve slope)), where Y: the inhibition rate (%) and X: the concentration of the compound.
# Ramos cells = experiment: Therapeutic effect on the B-cell lymphoma Ramos subcutaneous tumor model; format: in vivo, NOD/SCID mice; conditions: 40 mg/kg intragastrically once every other day, 6 times, vs solvent group
# Ovarian cancer A2780s = experiment: Cell proliferative activity (MTT / cck-8); format: cell-based; conditions: Homo sapiens, read-out: Half-Inhibitory Concentration IC50 A2780s
# Breast cancer SKBR3 = experiment: Cell proliferative activity (MTT / cck-8); format: cell-based; conditions: Homo sapiens, SK-BR-3, read-out: Half-Inhibitory Concentration IC50 SKBR3
# HBL-1 cells = experiment: Therapeutic effect on the B-cell lymphoma HBL-1 subcutaneous tumor model; format: in vivo, NOD/SCID mice; conditions: HBL-1 model, 40 mg/kg intragastrically once every other day, 9 times; vs solvent group
# [6] = clinical data; cited from earlier work
# [7] = test system: acetylation level of HDAC substrate (Ac-α-tubulin, Ac-H3); experiment: Western blot assay for detecting the level of acetylated proteins; format: cell-based; conditions: HCT116 cells (FIG. 3) or MV4-11 cells (FIG. 4)
# Description: The compounds or the positive control compound were added into each group of cells already adherent to the walls (2×10^6 HCT116 cells or 5×10^6 MV4-11 cells) at a designed concentration. After treatment for 4 hours, trypsin was added for digestion, followed by collecting the cells. After washing with cold PBS twice, the cells were lysed by adding RIPA lysis solution (which was purchased from Beyotime, Art. No.: P0013B, adding 1 mM PMSF before use), allowing for lysis on ice for 30 minutes while vortexing at intervals. The lysate was subjected to ultrasonic treatment on an ice bath (ultrasonicated for 3 seconds and repeated 5 times for each group at an interval of 10 seconds). The supernatant was collected by centrifugation at 12,000 g for 20 min at 4° C. and then mixed the SDS-PAGE loading buffer (purchased from Beyotime, Art. No.: P0015F). The mixture was heated in boiling water for 5 minutes to obtain a protein sample. The protein concentration of the sample was quantified by BCA method. 20 […] total protein from each group was subjected to 15% SDS-PAGE electrophoresis, and 5μl of a pre-stained protein marker (purchased from Thermo, Art. No.: 26616) was loaded to an additional selective lane in order to compare protein molecular weights as well as to detect the transmembrane result. When the bromophenol blue bands ran close to the bottom of the gel, the electrophoresis was terminated and the proteins on the gel were transferred to a PVDF membrane at a pore size of 0.22 μm. After 1.5 hours of transmembrane at a constant current of 200 mA, the PVDF membrane was removed and blocked in 5% skimmed milk for 1 hour. After completion of blocking, the membrane was incubated with the primary antibody (Ac-H3 antibody was purchased from Santa Cruz, Art. No.: sc-56616; Ac-α-tubulin antibody was purchased from Santa Cruz, Art. No.: sc-23950) overnight at 4° C. and then washed with TBS/T for 10 minutes for 3 times. The membrane was incubated with the horseradish peroxidase-coupled secondary antibody at room temperature for 1 hour, and then washed with TBS/T for 10 minutes for 3 times. After washing with TBS for 5 minutes, the membrane was exposed and developed by using a film in the darkroom. The detected GAPDH protein was an internal reference protein (GAPDH antibody was purchased from ZSGB-Bio, Art. No.: TA-08).
# A2780s cells = conditions: A2780s model, 100 mg/kg intragastrically once every other day, 16 times
smiles,measurement,setting,value
"O=C(CCCCCCNC(=O)c1cnc(N(c2ccccc2)c2ccccc2)nc1)NO [ACY-1215, reference compound]",IC50,[1],> 5 µM
same,IC50,[2],> 5 µM
same,IC50,[3],1470 ± 310 nM
same,IC50,[4],> 5 µM
same,IC50,Leukemia K562,> 5 µM
same,IC50,[5],> 5 µM
same,IC50,Multiple myeloma U266,> 5 µM
same,IC50,B-cell lymphoma Ramos,> 5 µM
same,IC50,Leukemia MV4-11,> 5 µM
same,IC50,Lung cancer A549,> 5 µM
same,IC50,Colon cancer HT29,> 5 µM
same,IC50,Colon cancer HCT116,> 5 µM
same,IC50,HDAC10,194 ± 54 nM
same,tumor inhibitory rate,Ramos cells,no inhibitory effects of tumor growth
same,IC50,Ovarian cancer A2780s,> 5 µM
same,IC50,Breast cancer SKBR3,> 5 µM
same,tumor inhibitory rate,HBL-1 cells,26.75%
"O=C(CCCCCCC(=O)Nc1ccccc1)NO [SAHA, reference compound]",toxic side effects,[6],thrombosis and neurotoxicity
same,acetylation of H3 (Ac-H3),[7],up-regulate acetylation of tubulin and H3
same,acetylation of α-tubulin,[7],up-regulate acetylation of tubulin and H3
same,death of mice during the experiment,A2780s cells,one mouse died

# Reference: patent publication US10532053B2, “Histone deacetylase inhibitor, and preparation method and use thereof” (GUANGDONG ZHONGSHENG PHARMACEUTICAL CO., LTD, priority 2015, dated 2020)
